Broadly, the IC50 is the midpoint of a concentration-inhibition curve.

The values below come from ChEMBL document CHEMBL1127893, “Bisindolylmaleimide inhibitors of protein kinase C. Further conformational restriction of a tertiary amine side chain” (Bioorg Med Chem Lett, 1994).

Experiment [1] has as its target cAMP-dependent protein kinase (PKA) (Homo sapiens, UniProt P22694+P17612+P22612). Put plainly: Inhibition of cyclic AMP dependent protein kinase A (PKA). Type of experiment: protein assay.
Experiment [2] concerns the target Protein kinase C (PKC). Put plainly: Inhibition of protein kinase C (PKC). It is filed as protein assay.
Experiment [3] concerns the target T1, Protein kinase C beta type (Rattus norvegicus, UniProt P68403). In words: Inhibition of Protein kinase C beta 1.
Experiment [4] concerns the target Protein kinase C alpha type (Rattus norvegicus, UniProt P05696). In words: Inhibition of Protein kinase C alpha.
Another experiment has as its target Phosphorylase kinase. Put plainly: Inhibition of phosphorylase kinase (PhK). It is filed as protein-complex assay.
For experiment [5], the target named is Protein kinase C gamma type (Rattus norvegicus, UniProt P63319). Put plainly: Inhibition of Protein kinase C gamma (PKC).
In experiment [6] the target is T2, Protein kinase C epsilon type (Rattus norvegicus, UniProt P09216).
T2 sequence (P09216 whole entry): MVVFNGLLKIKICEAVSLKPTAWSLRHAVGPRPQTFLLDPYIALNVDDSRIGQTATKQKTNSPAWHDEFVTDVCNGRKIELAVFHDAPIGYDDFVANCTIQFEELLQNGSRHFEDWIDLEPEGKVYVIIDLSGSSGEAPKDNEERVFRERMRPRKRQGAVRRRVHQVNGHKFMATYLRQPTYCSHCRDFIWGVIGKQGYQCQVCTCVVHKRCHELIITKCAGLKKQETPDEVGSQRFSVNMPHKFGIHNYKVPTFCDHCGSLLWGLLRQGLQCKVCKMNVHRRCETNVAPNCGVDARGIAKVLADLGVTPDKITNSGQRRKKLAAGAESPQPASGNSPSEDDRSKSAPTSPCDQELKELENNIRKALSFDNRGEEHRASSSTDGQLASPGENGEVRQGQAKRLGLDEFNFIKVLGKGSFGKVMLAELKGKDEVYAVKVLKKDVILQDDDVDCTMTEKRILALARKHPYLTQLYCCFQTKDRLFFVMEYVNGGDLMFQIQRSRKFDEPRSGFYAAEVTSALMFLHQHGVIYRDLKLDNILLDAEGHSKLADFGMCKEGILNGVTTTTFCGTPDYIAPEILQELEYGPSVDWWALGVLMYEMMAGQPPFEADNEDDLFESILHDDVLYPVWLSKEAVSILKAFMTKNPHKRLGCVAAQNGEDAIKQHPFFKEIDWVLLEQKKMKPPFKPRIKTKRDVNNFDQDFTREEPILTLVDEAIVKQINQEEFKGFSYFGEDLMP
In words: Inhibition of Protein kinase C epsilon.

For experiment [7], the target named is T1, Protein kinase C beta type. In words: Inhibition of Protein kinase C beta.
Experiment [8] addresses Protein kinase C (PKC). Put plainly: Inhibition of protein kinase C from rat brain (PKC).

T1 sequence (P68403 whole entry): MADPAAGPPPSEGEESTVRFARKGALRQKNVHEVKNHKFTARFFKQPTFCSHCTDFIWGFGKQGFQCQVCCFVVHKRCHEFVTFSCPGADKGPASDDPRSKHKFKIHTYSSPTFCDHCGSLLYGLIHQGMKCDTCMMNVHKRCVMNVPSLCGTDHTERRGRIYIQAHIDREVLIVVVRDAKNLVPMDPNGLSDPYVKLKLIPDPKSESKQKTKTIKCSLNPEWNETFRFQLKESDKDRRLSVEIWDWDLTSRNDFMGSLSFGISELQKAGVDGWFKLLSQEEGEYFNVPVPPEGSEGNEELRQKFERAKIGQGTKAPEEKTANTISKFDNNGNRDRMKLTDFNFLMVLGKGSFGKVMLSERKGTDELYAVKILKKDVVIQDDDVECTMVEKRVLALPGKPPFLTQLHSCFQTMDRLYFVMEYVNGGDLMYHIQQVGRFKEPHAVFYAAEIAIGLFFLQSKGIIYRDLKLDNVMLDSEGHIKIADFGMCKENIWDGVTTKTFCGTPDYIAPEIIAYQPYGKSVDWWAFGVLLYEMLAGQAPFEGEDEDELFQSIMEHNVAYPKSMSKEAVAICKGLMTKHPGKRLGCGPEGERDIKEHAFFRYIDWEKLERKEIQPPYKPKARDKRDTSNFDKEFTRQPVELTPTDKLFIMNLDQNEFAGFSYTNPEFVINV

`CN1C[C@@H]2Cn3c(c(C4=C(c5cn(C)c6ccccc56)C(=O)NC4=O)c4ccccc43)C[C@H]2C1.Cl` (stereo in doubt; form 1): the IC50 in experiment [1] is 2800 nM; against Protein kinase C (PKC) [2] it was 5 nM; in experiment [3] it was 5.3 nM; in experiment [4], 2.85 nM; against Phosphorylase kinase, 1690 nM; in experiment [5], 5.4 nM. In addition, the results for the IC50 (in experiment [6]; in experiment [7]; on Protein kinase C (PKC) [8]) were 48 nM, 6.8 nM and 6.8 nM, respectively.
Consider `CN1C[C@@H]2Cn3c(c(C4=C(c5cn(C)c6ccccc56)C(=O)NC4=O)c4ccccc43)C[C@H]2C1.Cl` (stereo in doubt; form 2), for which the IC50 in [1] turned out to be 5500 nM; at Protein kinase C (PKC) [2], 8 nM; against Phosphorylase kinase it was 3800 nM.
As for `CN(C)C[C@H]1CCn2c(c(C3=C(c4cn(C)c5ccccc45)C(=O)NC3=O)c3ccccc32)C1` [RO-320432], the IC50 in experiment [1] worked out at 223375 nM; in [3], 28 nM; in experiment [4] it was 8.8 nM; at Phosphorylase kinase, 15600 nM; in experiment [5] it was 36.5 nM; in experiment [6] it was 105 nM. For the same compound, the IC50 came out at 30.5 nM in experiment [7] and 21 nM against Protein kinase C (PKC) [8].
